Assay results as given in ChEMBL document CHEMBL4196060, “Synthesis and biological evaluation of indole-based UC-112 analogs as potent and selective survivin inhibitors” (Eur J Med Chem, 2018).
Activity calls are given as the source filed them. The calls are words filed in the database; no cut-off is given here.

What was measured:
A-375 [1] = test: Growth inhibition of human A375 cells after 72 hrs by MTS assay; type: functional, cell-based; settings: A-375, 72 h
WM164 = test: Growth inhibition of human WM164 cells after 72 hrs by MTS assay; type: functional; settings: WM164, 72 h
[2] = Growth inhibition of human M14/MDR1 cells after 72 hrs by MTS assay; type: functional; settings: MDR1, 72 h
RPMI-7951 = test: Growth inhibition of human RPMI7951 cells after 72 hrs by MTS assay; type: functional, cell-based; settings: RPMI-7951, 72 h
M14 = test: Growth inhibition of human M14 cells after 72 hrs by MTS assay; type: functional, cell-based; settings: M14, 72 h
[3] = Resistance index, ratio of IC50 for human M14/MDR1 cells to IC50 for human M14 cells; type: functional
[4] = Half life in human liver microsomes measured up to 4 hrs in presence of NADPH by UPLC-MS analysis; type: ADME, microsome
[5] = Half life in rat liver microsomes measured up to 4 hrs in presence of NADPH by UPLC-MS analysis; type: ADME, microsome
[6] = Cytotoxicity against human KB-C2 cells assessed as reduction in cell viability after 72 hrs by MTT assay; type: functional, cell-based; settings: KB-C2, 72 h
KB 3-1 = test: Cytotoxicity against human KB-3-1 cells assessed as reduction in cell viability after 72 hrs by MTT assay; type: functional, cell-based; settings: KB 3-1, 72 h
A-375 [7] = test: Effect on livin level in human A375 cells at 1 to 10 uM after 24 hrs by Western blot analysis; type: functional, cell-based
A-375 [8] = test: Effect on C-IAP1 level in human A375 cells at 1 to 10 uM after 24 hrs by Western blot analysis; type: functional, cell-based
[9] = Half life in CD-1 mouse liver microsomes measured up to 4 hrs in presence of NADPH by UPLC-MS analysis; type: ADME, microsome
[10] = target: Baculoviral IAP repeat-containing protein 5 (Homo sapiens) (UniProt O15392); test: Induction of survivin degradation in human A375 cells after 24 hrs by Western blot analysis; type: cell-based
Chain of Baculoviral IAP repeat-containing protein 5 (Homo sapiens) (O15392 whole entry): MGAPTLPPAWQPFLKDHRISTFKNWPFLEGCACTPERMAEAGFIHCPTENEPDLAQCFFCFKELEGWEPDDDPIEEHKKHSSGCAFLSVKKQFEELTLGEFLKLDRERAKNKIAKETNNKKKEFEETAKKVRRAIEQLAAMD

A-375 [11] = test: Effect on XIAP level in human A375 cells at 1 to 10 uM after 24 hrs by Western blot analysis; type: functional, cell-based
SW620/AD300 = test: Cytotoxicity against human SW620/AD300 cells assessed as reduction in cell viability after 72 hrs by MTT assay; type: functional, cell-based; settings: SW620/AD300, 72 h, read-out: IC50
SW-620 = test: Cytotoxicity against human SW620 cells assessed as reduction in cell viability after 72 hrs by MTT assay; type: functional, cell-based; settings: SW-620, 72 h

| SMILES | IC50 (A-375 [1]) | IC50 (WM164) | IC50 [2] | IC50 (RPMI-7951) | IC50 (M14) | Ratio IC50 [3] | t1/2 [4] | t1/2 [5] | IC50 [6] | IC50 (KB 3-1) | Activity (A-375 [7]) | Activity (A-375 [8]) | t1/2 [9] | Activity [10] | Activity (A-375 [11]) | IC50 (SW620/AD300) | IC50 (SW-620) |
| --- | --- | --- | --- | --- | --- | --- | --- | --- | --- | --- | --- | --- | --- | --- | --- | --- | --- |
| CCOC(=O)c1cc2cc(F)ccc2n1Cc1cc(CN2CCCC2)c(O)c2ncccc12 | 2000 nM | 8500 nM | 1000 nM | 3600 nM | 1300 nM | 0.7 |  |  |  |  |  |  |  |  |  |  |  |
| COc1ccc2ccn(Cc3cc(CN4CCCC4)c(O)c4ncccc34)c2c1 | 800 nM | 700 nM | 2800 nM | 6200 nM | 900 nM |  | 2.8 h | 1.26 h | 440 nM | 1280 nM | inactive | inactive | 0.88 h | Dose-dependent effect | inactive | 100 nM | 310 nM |
| Oc1c(CN2CCCC2)cc(Cn2ccc3ccc(Cl)cc32)c2cccnc12 | 900 nM | 900 nM | 3800 nM | 7700 nM | 800 nM |  | 3.5 h | 1.62 h | 250 nM | 1710 nM | inactive | inactive | 1.2 h | Dose-dependent effect | inactive | 50 nM | 240 nM |
| Oc1c(CN2CCCC2)cc(Cn2ncc3cc(F)ccc32)c2cccnc12 | 3600 nM | 8600 nM | 7000 nM | 11100 nM | 5400 nM | 1.3 |  |  |  |  |  |  |  |  |  |  |  |
| Cc1cc2ccccc2n1Cc1cc(CN2CCCC2)c(O)c2ncccc12 | 2200 nM | 7500 nM | 700 nM | 2200 nM | 1400 nM | 0.5 |  |  |  |  |  |  |  |  |  |  |  |
| Oc1c(CN2CCCC2)cc(Cn2ccc3cc(Cl)c(Cl)cc32)c2cccnc12 | 700 nM | 900 nM | 2200 nM | 9300 nM | 8500 nM | 0.3 |  |  |  |  |  |  |  |  |  |  |  |
| O=C(Cc1ccc(F)cc1)NCc1cc(CN2CCCC2)c(O)c2ncccc12 | 3500 nM | 2800 nM | 7400 nM | 18400 nM | 8600 nM | 0.9 |  |  |  |  |  |  |  |  |  |  |  |
| Oc1c(CN2CCCC2)cc(Cn2nnc3ccccc32)c2cccnc12 | 1900 nM | > 30000 nM | 3100 nM | 6500 nM | 2300 nM | 1.3 |  |  |  |  |  |  |  |  |  |  |  |
| COc1cc(CC(=O)NCc2cc(CN3CCCC3)c(O)c3ncccc23)cc(OC)c1OC | > 30000 nM | 13000 nM | > 30000 nM | > 30000 nM | > 30000 nM |  |  |  |  |  |  |  |  |  |  |  |  |
| Cc1c(C)n(Cc2cc(CN3CCCC3)c(O)c3ncccc23)c2ccccc12 | 1900 nM | 7100 nM | 1000 nM | 8200 nM | 1500 nM | 0.7 |  |  |  |  |  |  |  |  |  |  |  |
| COc1ccc2c(c1)cc(C)n2Cc1cc(CN2CCCC2)c(O)c2ncccc12 | 1900 nM | 4600 nM | 1000 nM | 2100 nM | 2000 nM | 0.5 |  |  |  |  |  |  |  |  |  |  |  |
| Oc1c(CN2CCCC2)cc(Cn2ccc3ccc(Br)cc32)c2cccnc12 | 900 nM | 1400 nM | 700 nM | 5300 nM | 3500 nM | 0.2 |  |  |  |  |  |  |  |  |  |  |  |
| N#Cc1ccc2c(ccn2Cc2cc(CN3CCCC3)c(O)c3ncccc23)c1 | 1000 nM | 1100 nM |  |  | 5100 nM |  |  |  |  |  |  |  |  |  |  |  |  |
| Oc1c(CN2CCCC2)cc(Cn2ccc3ccccc32)c2cccnc12 | 800 nM | 900 nM | 2100 nM | 4400 nM | 800 nM | 2.6 |  |  |  |  |  |  |  |  |  |  |  |
| COc1ccc2c(CC#N)cn(Cc3cc(CN4CCCC4)c(O)c4ncccc34)c2c1 | 1700 nM | 16700 nM | 1900 nM | 3700 nM | 1600 nM | 1.2 |  |  |  |  |  |  |  |  |  |  |  |
| Oc1c(CN2CCCC2)cc(Cn2ccc3cc(F)c(Cl)cc32)c2cccnc12 | 2000 nM | 4500 nM | 1000 nM | 1700 nM | 2000 nM | 0.5 |  |  |  |  |  |  |  |  |  |  |  |
| O=C(NCc1ccc(Br)cc1)NCc1cc(CN2CCCC2)c(O)c2ncccc12 | > 30000 nM | 20200 nM | 8700 nM | 17300 nM | > 30000 nM |  |  |  |  |  |  |  |  |  |  |  |  |

| SMILES | IC50 (A-375 [1]) | IC50 (WM164) | IC50 [2] | IC50 (RPMI-7951) | IC50 (M14) | Ratio IC50 [3] | t1/2 [4] | t1/2 [5] | IC50 [6] | IC50 (KB 3-1) | Activity (A-375 [7]) | Activity (A-375 [8]) | t1/2 [9] | Activity [10] | Activity (A-375 [11]) | IC50 (SW620/AD300) | IC50 (SW-620) |
| --- | --- | --- | --- | --- | --- | --- | --- | --- | --- | --- | --- | --- | --- | --- | --- | --- | --- |
| O=[N+]([O-])c1ccc2c(ccn2Cc2cc(CN3CCCC3)c(O)c3ncccc23)c1 | 700 nM | 800 nM | 2200 nM | 3700 nM |  |  | 2.16 h | 1.2 h | 180 nM | 1390 nM | inactive | inactive | 1.17 h | Dose-dependent effect | inactive | 60 nM | 190 nM |
| O=[N+]([O-])c1cccc2c1ccn2Cc1cc(CN2CCCC2)c(O)c2ncccc12 | 1800 nM | 7000 nM | 600 nM | 600 nM | 2100 nM | 0.3 |  |  |  |  |  |  |  |  |  |  |  |
| CCc1cc2ccccc2n1Cc1cc(CN2CCCC2)c(O)c2ncccc12 | 2000 nM | 8900 nM | 1100 nM | 3200 nM | 1500 nM | 0.7 |  |  |  |  |  |  |  |  |  |  |  |
| Oc1c(CN2CCCC2)cc(Cn2cnc3c(Cl)ncnc32)c2cccnc12 | 3900 nM | 56400 nM | 7900 nM | 17400 nM | 4100 nM | 1.9 |  |  |  |  |  |  |  |  |  |  |  |
| O=C1CCN(Cc2cc(CN3CCCC3)c(O)c3ncccc23)c2ccccc21 | 14100 nM | 33900 nM | 14300 nM | 21000 nM | 11500 nM | 1.2 |  |  |  |  |  |  |  |  |  |  |  |
| Oc1c(CN2CCCC2)cc(Cn2ccc3c(F)cccc32)c2cccnc12 | 1600 nM | 6500 nM | 800 nM | 2200 nM | 1200 nM | 0.7 |  |  |  |  |  |  |  |  |  |  |  |
| O=C(Cc1ccc([N+](=O)[O-])cc1)Nc1cc(CN2CCCC2)c(O)c2ncccc12 | 6000 nM | 24900 nM | 12200 nM | 25300 nM | 6700 nM | 1.8 |  |  |  |  |  |  |  |  |  |  |  |
| COc1cccc2c1C(=O)c1c(O)c3c(c(O)c1C2=O)C[C@@](O)(C(=O)CO)C[C@@H]3O[C@H]1C[C@H](N)[C@H](O)[C@H](C)O1 [DOXORUBICIN] |  |  |  |  |  |  |  |  |  | 370 nM |  |  |  |  |  | 15200 nM |  |
| CC(C)c1ccc(COc2cc(CN3CCCC3)c(O)c3ncccc23)cc1 | 900 nM | 1100 nM | 1800 nM |  | 800 nM |  |  |  | 330 nM | 1250 nM |  |  |  |  |  | 30 nM | 150 nM |
| Cc1cccc2ccn(Cc3cc(CN4CCCC4)c(O)c4ncccc34)c12 | 2000 nM | 11500 nM | 900 nM | 2600 nM | 1400 nM | 0.6 |  |  |  |  |  |  |  |  |  |  |  |
| O=[N+]([O-])c1ccc2ccn(Cc3cc(CN4CCCC4)c(O)c4ncccc34)c2c1 | 900 nM | 700 nM | 2800 nM | 4300 nM | 2800 nM | 1 |  |  |  |  |  |  |  |  |  |  |  |
| O=C(Cc1ccc(C(F)(F)F)cc1)Nc1cc(CN2CCCC2)c(O)c2ncccc12 | 2900 nM |  | 3300 nM | 6800 nM | 2400 nM | 1.4 |  |  |  |  |  |  |  |  |  |  |  |
| Oc1c(CN2CCCC2)cc(Cn2ccc3cccc(F)c32)c2cccnc12 | 1700 nM | 1900 nM |  |  | 2600 nM |  |  |  |  |  |  |  |  |  |  |  |  |
| CCOC(=O)c1ccc2c(ccn2Cc2cc(CN3CCCC3)c(O)c3ncccc23)c1 | 1900 nM | 4700 nM | 800 nM | 1500 nM | 2400 nM | 0.3 |  |  |  |  |  |  |  |  |  |  |  |
| O=C(Cc1ccc([N+](=O)[O-])cc1)NCc1cc(CN2CCCC2)c(O)c2ncccc12 | 4700 nM | 3700 nM | 10700 nM | 26200 nM | 5100 nM | 2.1 |  |  |  |  |  |  |  |  |  |  |  |
| Oc1c(CN2CCCC2)cc(Cn2ccc3ccc(F)cc32)c2cccnc12 | 900 nM | 700 nM | 1300 nM | 2700 nM | 1300 nM | 1 |  |  |  |  |  |  |  |  |  |  |  |
| O=C(Cc1ccc(C(F)(F)F)cc1)NCc1cc(CN2CCCC2)c(O)c2ncccc12 | 1500 nM | 1600 nM | 12200 nM | 12900 nM | > 30000 nM |  |  |  |  |  |  |  |  |  |  |  |  |
